Structures are written as SMILES. A value given as a limit tells only on which side of the number the result lay.

Series [1] concerns A549 cells. The series can be described thus: MTT cytotoxicity assay, A549. In kind it is cell-based. The conditions noted are these: Homo sapiens, A549 cell line, average of three determinations. From the text: (§1) Four human tumor cell lines (A549, H1975, NCI-H460, and MCF-7) and human normal cell line LO2 were selected to evaluate the antiproliferative activity of all target compounds in vitro. Olmutinib was used as a positive control. Results are summarized in Table 1, where the values are the average of at least three independent experiments. […] However, the antiproliferative activities of the compounds that were substituted with the anisidine side chain performed better than the cyano group chain.

Series [2] has as its system H1975 cells. The series can be described thus: MTT cytotoxicity assay, H1975. The conditions noted are these: Homo sapiens, NCI-H1975, H1975 cell line, average of three determinations. The format is cell-based.
Description: as §1
Background: Formazan colour is commonly taken as a measure of viable cells.

Series [3] has as its system NCI-H460 cells. The series can be described thus: MTT cytotoxicity assay, NCI-H460. In kind it is cell-based. Particulars: Homo sapiens, NCI-H460 cell line, average of three determinations.
Description: as §1

Series [4] relates to MCF-7 cells. Description: MTT cytotoxicity assay, MCF-7. The format is cell-based. The conditions noted are these: Homo sapiens, MCF7, MCF-7 cell line, average of three determinations.
Description: as §1

The subject of series [5] is LO2 cells. Description: MTT cytotoxicity assay, normal cell line LO2. The format is cell-based, human. Particulars: L02; human normal cell line LO2, MTT, average of three determinations.
Description: as §1

For series [6], the target named is PI3Kα (Homo sapiens, UniProt P42336). Description: Kinase-Glo Luminescent Kinase Assay, PI3Kα. In kind it is biochemical. Particulars: average of three determinations. The protocol: Compounds H7 and H10 had excellent antiproliferative activity and were further screened out for kinase inhibition testing. We evaluated compounds H7 and H10 with EGFR^T790M/L858R kinases and PI3Kα kinases.
Chain of PI3Kα (P42336 whole entry): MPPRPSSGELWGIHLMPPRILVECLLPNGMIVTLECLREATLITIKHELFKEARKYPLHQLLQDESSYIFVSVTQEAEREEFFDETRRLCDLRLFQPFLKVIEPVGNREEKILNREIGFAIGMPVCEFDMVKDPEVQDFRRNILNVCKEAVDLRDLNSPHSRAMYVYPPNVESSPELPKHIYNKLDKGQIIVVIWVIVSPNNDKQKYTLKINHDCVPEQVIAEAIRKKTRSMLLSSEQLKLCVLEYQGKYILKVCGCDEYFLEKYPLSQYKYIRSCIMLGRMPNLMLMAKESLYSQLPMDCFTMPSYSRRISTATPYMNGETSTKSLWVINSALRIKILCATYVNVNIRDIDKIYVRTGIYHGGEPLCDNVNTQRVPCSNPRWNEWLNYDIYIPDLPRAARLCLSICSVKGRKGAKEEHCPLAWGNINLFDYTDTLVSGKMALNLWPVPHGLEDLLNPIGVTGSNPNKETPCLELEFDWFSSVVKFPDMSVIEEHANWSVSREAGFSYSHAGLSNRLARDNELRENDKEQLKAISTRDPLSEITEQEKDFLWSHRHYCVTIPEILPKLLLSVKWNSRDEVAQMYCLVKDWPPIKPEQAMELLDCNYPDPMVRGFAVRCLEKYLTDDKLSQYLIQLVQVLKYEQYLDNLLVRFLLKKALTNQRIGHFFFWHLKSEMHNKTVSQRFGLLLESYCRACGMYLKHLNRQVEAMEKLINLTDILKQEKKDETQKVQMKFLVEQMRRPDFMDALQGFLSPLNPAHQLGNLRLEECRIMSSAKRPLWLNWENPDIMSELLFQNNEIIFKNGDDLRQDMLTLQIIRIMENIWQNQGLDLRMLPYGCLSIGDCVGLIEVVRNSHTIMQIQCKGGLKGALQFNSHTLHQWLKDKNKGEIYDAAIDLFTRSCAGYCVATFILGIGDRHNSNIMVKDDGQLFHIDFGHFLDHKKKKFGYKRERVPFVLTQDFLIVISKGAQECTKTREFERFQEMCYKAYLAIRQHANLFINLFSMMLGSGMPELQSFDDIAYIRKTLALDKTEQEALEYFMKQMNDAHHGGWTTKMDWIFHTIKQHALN
Chain of PI3Kα (P27986 whole entry partner): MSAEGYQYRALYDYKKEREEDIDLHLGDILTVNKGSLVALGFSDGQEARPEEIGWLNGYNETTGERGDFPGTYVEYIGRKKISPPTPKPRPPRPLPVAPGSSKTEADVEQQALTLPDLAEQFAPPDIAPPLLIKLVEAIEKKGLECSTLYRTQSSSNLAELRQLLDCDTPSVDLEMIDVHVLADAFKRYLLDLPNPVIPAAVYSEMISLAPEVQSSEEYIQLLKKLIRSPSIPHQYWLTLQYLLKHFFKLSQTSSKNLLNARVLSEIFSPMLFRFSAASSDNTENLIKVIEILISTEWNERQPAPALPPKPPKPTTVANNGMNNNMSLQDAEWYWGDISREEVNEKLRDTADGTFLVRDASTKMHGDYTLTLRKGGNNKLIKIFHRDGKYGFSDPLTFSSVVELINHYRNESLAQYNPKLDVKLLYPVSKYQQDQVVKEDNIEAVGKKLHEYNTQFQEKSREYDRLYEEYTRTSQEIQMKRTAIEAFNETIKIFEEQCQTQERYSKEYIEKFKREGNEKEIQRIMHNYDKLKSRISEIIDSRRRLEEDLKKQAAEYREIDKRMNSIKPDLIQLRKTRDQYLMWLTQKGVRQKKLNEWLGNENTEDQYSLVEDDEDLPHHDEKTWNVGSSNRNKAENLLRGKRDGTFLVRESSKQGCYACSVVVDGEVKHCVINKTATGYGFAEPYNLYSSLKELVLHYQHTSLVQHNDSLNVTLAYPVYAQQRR
The specific operation was carried out according to our previous research.

Series [7] concerns HCC827 (EGFR^dell19) cells. The conditions noted are these: quoted in the introduction; read-out: IC50 against HCC827 (EGFR^dell19) cells; cited from earlier work.
Series [8] has as its system H1975 (EGFR^L858R/T790M) cells. Particulars: quoted in the introduction; read-out: IC50 against H1975 (EGFR^L858R/T790M) cells; cited from earlier work.
In series [9] the test system is A549 (EGFR^WT) cells. Particulars: quoted in the introduction; read-out: IC50 against A549 (EGFR^WT) cells; cited from earlier work.
The conditions of series [10]: quoted in the introduction; cited from earlier work.

Consider `C=CC(=O)Nc1cccc(Oc2nc(Nc3ccc(N4CCN(C)CC4)cc3)nc3ccsc23)c1` [Olmutinib, olmutinib, reference compound], for which the IC50 is 4.29 ± 0.21 µM in series [1]; 0.52 ± 0.1 µM in series [2]; 5.29 ± 0.59 µM in series [3]; 26.9 ± 0.93 µM in series [4]; 25.8 ± 1.31 µM in series [5]; greater than 10 µM in series [6]. Besides, the values for the IC50 in series [7], in [8] and in series [9] were 0.0092 µM, 0.01 µM and 0.225 µM, respectively. The toxic side effects entry in [10] was “palmoplantar keratoderma and diarrhea”.

(Values after PMC8160875 (Molecules, 2021).)
